Test results reported in EP0249194A2, “Topical prostaglandin formulations” (AMERICAN CYANAMID COMPANY, priority 1986, dated 1987).
Read-outs that look alike come from different tables or passages of the source.

Tests used:
[1] = Stability of viprostol compositions on storage in glass (ampules); assay type: physicochemical
male pattern baldness = experiment: Clinical study of hair growth after once-daily topical application to the scalp, hair counts; assay type: in vivo, healthy, male volunteers; conditions: topical application of small amounts; mean hair counts over a six-month period (Figs. 1-5) and three-month chart
Protocol: Clinical studies using healthy, male volunteers (age 18-65) with vertex baldness and some recession of front hairline were performed using viprostol in Formulation A, above-described. The volunteers were not hypertensive. […] The hairs on such location were counted at the beginning of the study, and recounts were done periodically during the course of the study. All hair, including unpigmented vellus and pigmented intermediate and terminal hair was, counted, except as indicated hereinbelow. The amount of viprostol applied was approximately 120 mcg, which amount was applied once daily to the bald and balding areas of the scalp. The viprostol was contained in the above-described Formulation A. Approximately 0.3 ml of such formulation was topically to the scalp with an index finger and rubbing action. The scalp was clean (recently shampooed) and dry at application. The chart below summarizes the results after three months of study.
Additionally, as the study proceeded beyond three months, the results wre charted as mean hair counts over time.

C=CC(O)(CC=CC1C(O)CC(=O)C1CC=CCCCC(=O)OC)CCCC (racemic) [viprostol, Methyl (±)-[11α,5Z(5E), 13E, 16R and 16S]-16 ethenyl-11,16-dihydroxy-9-oxoprosta-5,13-dien-1-oate]
Stability of Viprostol Compositions (% of Initial Potency) ([1]; Initial): 100% | remaining at 1440 h ([1]; neat bulk liquid, 23°C 2 months, read-out: Stability of Viprostol Compositions (% of Initial Potency)): 99% | remaining at 4320 h ([1]; neat bulk liquid, 23°C 6 months, read-out: Stability of Viprostol Compositions (% of Initial Potency)): 87% | remaining at 8760 h ([1]; neat bulk liquid, 23°C 12 months, read-out: Stability of Viprostol Compositions (% of Initial Potency)): 20% | remaining at 13152 h ([1]; neat bulk liquid, 23°C 18 months, read-out: Stability of Viprostol Compositions (% of Initial Potency)): 12% | remaining at 1440 h ([1]; neat bulk liquid, 42°C 2 months, read-out: Stability of Viprostol Compositions (% of Initial Potency)): 83% | remaining at 720 h ([1]; neat bulk liquid, 56°C 1 month, read-out: Stability of Viprostol Compositions (% of Initial Potency)): 32% | remaining at 1440 h ([1]; neat bulk liquid, 56°C 2 months, read-out: Stability of Viprostol Compositions (% of Initial Potency)): 0% | hair growth (male pattern baldness): caused hair growth
